Results reported in patent US20090062190A1, “Transcriptional Regulation of Cytokines by LITAF and STAT (6)(B)” (priority 2005, published 2009).

Tested on: translocation of STAT6(B) and LITAF in mouse macrophages
Assay: Western blot after kinase inhibitor pretreatment plus LPS stimulation (FIG. 13)
Type: cell-based
Details: pretreatment before LPS stimulation
From the text: It is well known that STAT family members share two major domains, oligomerization and Src homology 2 (SH2), for phosphorylation by Janis kinases (Jaks) that facilitate dimerization of STAT proteins and subsequent translocation into the nucleus (Gallmeier, et al., J Cell Physiol, 203:209-216, 2005; Chen, et al., J Allergy Clin Immunol, 114:476-489, 2004, Tang, et al., PNAS USA, 102:5132-5137, 2005). […] In this Western blot, cells were pretreated with various kinase inhibitors (FIG. 13a) before LPS stimulation.

C[S+]([O-])c1ccc(-c2nc(-c3ccncc3)c(-c3ccc(F)cc3)[nH]2)cc1 (stereo not drawn) [SB203580]
TNF-α protein levels compared to cells exposed to LPS only: suppression
LITAF and STAT6(B) expression in the nucleus (Western blot): substantially reduced
whole cell extract LITAF and STAT6(B) expression (Western blot): unchanged
